Data from PubChem BioAssay AID602239 (National Center for Advancing Translational Sciences (NCATS), 2012).

system: mouse liver microsomes with NADPH, LC-MS/MS; test: qHTS for Activators of Human alpha-Glucosidase as a Potential Chaperone Treatment of Pompe Disease: Metabolic Stability in presence of NADPH; details: at 5 µM; active compounds read high (more stable)
Text: Alpha-glucosidase is responsible for hydrolysis of terminal, non-reducing 1,4-linked alpha-D-glucose residues with release of alpha-D-glucose. It is a lysosomal hydrolase that is required for the degradation of a small percentage (1-3%) of cellular glycogen in human. Deficiency of this enzyme results in glycogen-storage disease type II (GSDII), also referred to as Pompe disease, an autosomal recessive disorder. Structurally normal glycogen is accumulated in lysosomes and cytoplasm in affected patients, primarily in muscle tissues. Excessive glycogen storage within lysosomes may interrupt normal functioning of other organelles and leads to cellular injury. In turn, this leads to enlargement and dysfunction of the entire organ involved (eg, cardiomyopathy and muscle weakness). It has reported that the improper folding and trafficking of alpha-glucosidase resulting from the genetic mutations may account for a significant number of Pompe patients. […] We optimized this alpha-glucosidase assay in 1536-well plate format for identifying the novel small molecule inhibitors with the structures other than the sugar analogs in order to develop the new pharmacological chaperones. Mouse liver microsomes are created through broken up endoplasmic reticulum from mouse liver. These liver microsomes contain many drug metabolizing enzymes, such as Cytochome P-450s and flavin-containing monooxygenases. […] NIH Chemical Genomics Center [NCGC] NIH Molecular Libraries Probe Production Centers Network [MLPCN] MLPCN Grant: MH084841 Assay Submitter (PI): Wei Zheng
5uM of compound is incubated with mouse liver microsome; the reference compounds are verapamil and warfarin. Compounds are incubated and samples are analyzed with LC-MS/MS.

| SMILES | percent remaining (higher = more stable) [%] |
| --- | --- |
| CCCN1CNc2c(c(=O)[nH]c(=S)n2Cc2ccc(OC)c(OC)c2)C1 | 63 |
| CCCN1CNc2c(c(=O)[nH]c(=S)n2CCc2cccc(Cl)c2Cl)C1 | 2 |
| CCCN1CNc2c(c(=O)[nH]c(=S)n2CCc2ccc(OC)c(OC)c2)C1 | 4 |
